Where “and” joins values, the source holds several entries; their conditions need not be identical. Identical values can stand only once. Blank lines part the entries; values can stand above or below the compound they belong to.
Columns and labels:
[1] = target: T1, FITC-labeled CFTRpS753pS768 peptide (no 14-3-3) (Homo sapiens, UniProt P13569); assay: Dose-response FP control assay in the absence of 14-3-3; type: binding; details: No 14-3-3
T1 construct: made in house; host or cells: synthetic peptide
T1 sequence (P13569 747-774 limits assumed): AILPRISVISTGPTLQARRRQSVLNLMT
Description: The 14-3-3β concentration used for the FP screening assay was 10 μM (dashed line). c HTS FP assay of the Cyclenium library. The samples contain 100 nM of FITC-CFTR_pS753pS768 peptide, 10 μM 14-3-3β, and 50 μM compound. FC-A (100 µM) was added as a positive control and DMSO as the negative control. Hit compounds are defined as a polarization increase which is higher than 20% of the response of FC-A. Red squares are compounds that appeared positive in the negative control without 14-3-3. […] Background polarization was subtracted from all values, n = 3 technical replicates. Compounds selected for further analysis are indicated with an asterisk. e Polarization in the absence of 14-3-3. […] Source data are provided as a Source Data file.
The FITC-labeled peptides were dissolved in FP buffer (10 mM HEPES pH 7.4, 150 mM NaCl, 0.1% Tween20, 1 mg/mL BSA) to a final concentration of 100 nM or 10 nM. For the dose-response assays, a 14-3-3β concentration of 10 μM was used while titrating the compounds in a two-times dilution series and, for the other assays, a dilution series of 14-3-3β was made with constant concentration of compound. The dilution series were made in 384 Corning Black Round Bottom well plates and their polarization was measured with a Tecan Infinite F500 plate reader (ex. = 485 nm, em. = 535 nm). The method of fitting of the curves was: “log(agonist) vs. response – Variable slope (four parameters)” from GraphPad Prism. The equation is Y = Bottom + (Top-Bottom)/(1 + 10^((LogEC50-X)*HillSlope)).

[2] = target: T2, F508del-CFTR in BHK cells (Homo sapiens, UniProt P13569, DEL508-508); assay: FLIPR membrane potential (FMP) assay; type: cell-based, hamster; details: for CFTR function (FMP assay): BHK cells, 24 h, 20 μM compound, genistein, forskolin; for FMP assay signal (Fig5c) / FMP assay signal (Fig5b): individual replicates
T2 construct: expressed in transfected cells; host or cells: baby hamster kidney (BHK) cells
T2 sequence (P13569 with tags, fused parts or gaps DEL508-508): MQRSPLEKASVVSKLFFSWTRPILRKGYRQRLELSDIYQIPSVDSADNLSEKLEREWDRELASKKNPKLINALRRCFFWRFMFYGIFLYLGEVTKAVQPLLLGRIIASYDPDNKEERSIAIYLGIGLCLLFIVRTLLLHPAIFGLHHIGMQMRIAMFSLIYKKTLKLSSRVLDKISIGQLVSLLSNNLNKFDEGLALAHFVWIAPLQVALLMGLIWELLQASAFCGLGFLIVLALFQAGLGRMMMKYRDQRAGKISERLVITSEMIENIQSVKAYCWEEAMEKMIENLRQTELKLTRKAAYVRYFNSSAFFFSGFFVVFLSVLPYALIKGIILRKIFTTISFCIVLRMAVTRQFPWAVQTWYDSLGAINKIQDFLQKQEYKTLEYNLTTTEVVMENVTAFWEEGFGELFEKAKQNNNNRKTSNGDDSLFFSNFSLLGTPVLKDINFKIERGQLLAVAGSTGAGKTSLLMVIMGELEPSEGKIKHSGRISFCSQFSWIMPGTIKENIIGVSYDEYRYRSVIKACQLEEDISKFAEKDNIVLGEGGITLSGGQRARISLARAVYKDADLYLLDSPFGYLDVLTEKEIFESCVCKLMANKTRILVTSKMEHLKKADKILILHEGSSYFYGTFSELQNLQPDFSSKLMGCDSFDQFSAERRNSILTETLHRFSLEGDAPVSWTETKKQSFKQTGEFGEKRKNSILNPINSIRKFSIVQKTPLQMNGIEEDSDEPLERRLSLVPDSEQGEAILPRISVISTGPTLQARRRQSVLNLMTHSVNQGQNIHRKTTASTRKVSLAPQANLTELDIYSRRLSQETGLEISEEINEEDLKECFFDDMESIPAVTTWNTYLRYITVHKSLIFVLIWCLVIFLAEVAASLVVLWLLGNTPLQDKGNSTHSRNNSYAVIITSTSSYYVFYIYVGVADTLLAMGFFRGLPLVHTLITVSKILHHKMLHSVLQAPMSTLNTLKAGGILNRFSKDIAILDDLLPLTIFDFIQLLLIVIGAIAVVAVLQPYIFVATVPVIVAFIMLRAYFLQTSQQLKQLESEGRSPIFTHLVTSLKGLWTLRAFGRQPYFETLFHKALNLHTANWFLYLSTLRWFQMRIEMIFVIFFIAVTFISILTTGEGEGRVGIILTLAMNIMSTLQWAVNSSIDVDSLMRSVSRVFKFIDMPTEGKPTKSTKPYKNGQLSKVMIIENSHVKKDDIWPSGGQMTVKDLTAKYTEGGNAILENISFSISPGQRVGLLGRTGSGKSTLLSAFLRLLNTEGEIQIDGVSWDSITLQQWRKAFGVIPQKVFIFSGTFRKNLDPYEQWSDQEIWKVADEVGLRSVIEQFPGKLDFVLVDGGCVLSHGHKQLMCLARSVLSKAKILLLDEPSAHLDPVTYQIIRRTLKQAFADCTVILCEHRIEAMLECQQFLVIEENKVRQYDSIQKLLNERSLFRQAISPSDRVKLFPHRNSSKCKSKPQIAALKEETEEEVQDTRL
Description: Twelve (12) validated hit compounds from the initial screening and focused validation library were tested for their effect on F508del-CFTR trafficking. Baby hamster kidney (BHK) cells expressing 3HA-tagged F508del-CFTR were treated for 24 h with 10 μM compound. After fixation of the cells, a combination of mouse monoclonal anti-HA antibody and anti-mouse IgG conjugated with FITC was used to detect F508del-CFTR that had trafficked to the plasma membrane as described previously. […] Additionally, a fluorescence imaging plate reader (FLIPR) Membrane Potential (FMP) assay was performed. This assay measures real-time membrane potential changes associated with ion channel activation and ion transporter proteins. F508del-CFTR expressing BHK cells were incubated for 24 h with 20 μM compound before treatment with the potentiator genistein, FMP dye, and activator forskolin. The fluorescence intensity is thus a measure for the function of the CFTR protein in the plasma membrane of these cells. The F508del-CFTR corrector VX-809 (lumacaftor) and the triple combination Trikafta® were used as positive controls in this assay. […] Another cellular assay was performed with the Ussing Chamber, which detects and quantifies transport of ions across epithelial tissue. F508del-CFTR expressing cystic fibrosis epithelial (CFBE) cells were treated for 18 h with 20 μM CY007424. After forskolin and genistein stimulation, the short-circuit current of the cells was measured.
Fig. 5 Cellular activity of macrocycles stabilizing the 14-3-3/CFTR PPI. a Surface expression of 3HA-tagged F508del-CFTR in BHK cells incubated for 24 h with 10 μM compound and treated with mouse monoclonal anti-HA antibody and anti-mouse IgG conjugated with FITC (n = 4 or n = 3 biological replicates, bars represent the mean). b, c FLIPR Membrane Potential (FMP) assay of F508del-CFTR expressing BHK cells treated for 24 h with the macrocycles (b, n = 6 biological replicates, bars represent the mean) or with CY007424 and/or VX-809 or Trikafta®, with and without CFTR inhibitor INH172 (c, n = 4 biological replicates, bars represent the mean). d Using chamber experiment of F508del-CFTR expressing CFBE cells treated for 18 h with CY007424, VX-809, or Trikafta® or in combinations. CFTR activity is assayed by measurement of short-circuit current of cells after stimulation by forskolin and the potentiator genistein (n = 3 or n = 6 biological replicates, bars represent the mean). Source data are provided as a Source Data file.
The FLuorescence Imaging Plate Reader (FLIPR) Membrane Potential (FMP) assay is based on the technique developed by Van Goor et al.[30] F508del-CFTR expressing baby hamster kidney (BHK) cells were incubated with the compounds for 24 h at 37 °C. The growth medium was removed from the cells by inverting the plate and FMP dye (Molecular Devices, Part #R8042) including the potentiator genistein (Sigma, G6649) was added back in 70 μl of low Cl^- containing buffer (160 mM NaGluconate, 4.5 mM KCl, 2 mM CaCl2, 1 mM MgCl2, 10 mM D-Glucose, 10 mM HEPES (pH7.4)). The plates were incubated for 5 min at RT before activation of CFTR in the plate reader (SynergyMX) with the addition of 14 µL of FMP dye in low Cl^- buffer containing 6x forskolin (Sigma, F6886) following a 2 min baseline read. Fluorescence intensity was monitored for 5 min following CFTR activation. Reported is the rate of fluorescence intensity change over time.

FP signal ([1]; compound 476.8 pM): 4
FP signal ([1]; compound 953.7 pM): 5
FP signal ([1]; compound 1.90735e-9 M): 5
FP signal ([1]; compound 3.8147e-9 M): 7
FP signal ([1]; compound 7.6294e-9 M): 4
FP signal ([1]; compound 1.52588e-8 M): 7
FP signal ([1]; compound 3.05176e-8 M): 6
FP signal ([1]; compound 6.10352e-8 M): 5
FP signal ([1]; compound 1.2207e-7 M): 5
FP signal ([1]; compound 2.44141e-7 M): 7
FP signal ([1]; compound 4.88281e-7 M): 7
FP signal ([1]; compound 9.76563e-7 M): 7
FP signal ([1]; compound 1.95313e-6 M): 6
FP signal ([1]; compound 3.90625e-6 M): 12
FP signal ([1]; compound 7.8125e-6 M): 27
FP signal ([1]; compound 1.5625e-5 M): 52
FP signal ([1]; compound 3.125e-5 M): 122
FP signal ([1]; compound 6.25e-5 M): 193
FP signal ([1]; compound 0.000125 M): 244
FP signal ([1]; compound 0.00025 M): 263
FP signal ([1]; compound 0.0005 M): 257
FP signal ([1]; compound 0.001 M): 271
CFTR function (FMP assay) [2]: clear corrector function
FMP assay signal (Fig5c) ([2]; With CFTR-inh172): 23.036 and 3.107 and 4.393 and -13.071
SMILES: N=C(N)NCCCC1NCc2ccccc2Sc2ccccc2CNC(=O)C(Cc2ccc(O)cc2)NC(=O)C(CCCN)NC1=O (stereo not drawn) [CY007424]
FMP assay signal (Fig5c) ([2]; Compound alone): 416.179 and 423.464 and 390.429 and 379.429
FMP assay signal (Fig5b) [2]: 405.536 and 378.214 and 384.321 and 349.393 and 433.679 and 385.071

FP signal ([1]; compound 324.2 pM): 2
FP signal ([1]; compound 648.5 pM): 1
FP signal ([1]; compound 1.297e-9 M): 2
FP signal ([1]; compound 2.59399e-9 M): 3
FP signal ([1]; compound 5.18799e-9 M): 3
FP signal ([1]; compound 1.0376e-8 M): 3
FP signal ([1]; compound 2.0752e-8 M): 3
FP signal ([1]; compound 4.15039e-8 M): 3
FP signal ([1]; compound 8.30078e-8 M): 2
FP signal ([1]; compound 1.66016e-7 M): 5
FP signal ([1]; compound 3.32031e-7 M): 4
FP signal ([1]; compound 6.64062e-7 M): 3
FP signal ([1]; compound 1.32813e-6 M): 4
FP signal ([1]; compound 2.65625e-6 M): 5
FP signal ([1]; compound 5.3125e-6 M): 6
FP signal ([1]; compound 1.0625e-5 M): 4
FP signal ([1]; compound 2.125e-5 M): 10
FP signal ([1]; compound 4.25e-5 M): 18
FP signal ([1]; compound 8.5e-5 M): 37
FP signal ([1]; compound 0.00034 M): 117
FP signal ([1]; compound 0.00068 M): 184
FP signal ([1]; compound […]): 71
SMILES: N=C(N)NCCCC1NC(=O)C(CCC(N)=O)NC(=O)C(CCCNC(=N)N)NC(=O)C2Cc3ccccc3CN2Cc2cccc(c2)-c2ccccc2CNC1=O (stereo not drawn) [CY007493]
FMP assay signal (Fig5b) [2]: 74.143 and 78.429 and 43.607 and 72 and 65.679 and 76.179

FP signal ([1]; compound 476.8 pM): 4
FP signal ([1]; compound 953.7 pM): 5
FP signal ([1]; compound 1.90735e-9 M): 5
FP signal ([1]; compound 3.8147e-9 M): 6
FP signal ([1]; compound 7.6294e-9 M): 4
FP signal ([1]; compound 1.52588e-8 M): 6
FP signal ([1]; compound 3.05176e-8 M): 3
FP signal ([1]; compound 6.10352e-8 M): 5
FP signal ([1]; compound 1.2207e-7 M): 8
FP signal ([1]; compound 2.44141e-7 M): 6
FP signal ([1]; compound 4.88281e-7 M): 5
FP signal ([1]; compound 9.76563e-7 M): 5
FP signal ([1]; compound 1.95313e-6 M): 6
FP signal ([1]; compound 3.90625e-6 M): 7
FP signal ([1]; compound 7.8125e-6 M): 7
FP signal ([1]; compound 1.5625e-5 M): 9
FP signal ([1]; compound 3.125e-5 M): 18
FP signal ([1]; compound 6.25e-5 M): 35
FP signal ([1]; compound 0.000125 M): 83
FP signal ([1]; compound 0.00025 M): 142
FP signal ([1]; compound 0.0005 M): 193
FP signal ([1]; compound 0.001 M): 240
CFTR function (FMP assay) [2]: inactive
SMILES: CN1CC(=O)NC(CCCNC(=N)N)C(=O)NC(CCC(N)=O)C(=O)NC(CCCNC(=N)N)C(=O)NCc2ccccc2-c2cccc(c2)C1 (stereo not drawn) [CY007491]
FMP assay signal (Fig5b) [2]: 58.5 and 35.75 and 49.393 and 59.036 and 29.929 and 21.679

SMILES: N=C(N)NCCCC1NC(=O)C(CCC(N)=O)NC(=O)C(CCCNC(=N)N)NC(=O)C2CCCN2Cc2cccc(c2)-c2ccccc2CNC1=O (stereo not drawn) [CY007458]
FP signal ([1]; compound 476.8 pM): 6
FP signal ([1]; compound 953.7 pM): 5
FP signal ([1]; compound 1.90735e-9 M): 4
FP signal ([1]; compound 3.8147e-9 M): 5
FP signal ([1]; compound 7.6294e-9 M): 7
FP signal ([1]; compound 1.52588e-8 M): 4
FP signal ([1]; compound 3.05176e-8 M): 6
FP signal ([1]; compound 6.10352e-8 M): 5
FP signal ([1]; compound 1.2207e-7 M): 4
FP signal ([1]; compound 2.44141e-7 M): 5
FP signal ([1]; compound 4.88281e-7 M): 6
FP signal ([1]; compound 9.76563e-7 M): 6
FP signal ([1]; compound 1.95313e-6 M): 5
FP signal ([1]; compound 3.90625e-6 M): 8
FP signal ([1]; compound 7.8125e-6 M): 11
FP signal ([1]; compound 1.5625e-5 M): 15
FP signal ([1]; compound 3.125e-5 M): 33
FP signal ([1]; compound 6.25e-5 M): 65
FP signal ([1]; compound 0.000125 M): 124
FP signal ([1]; compound 0.00025 M): 179
FP signal ([1]; compound 0.0005 M): 221
FP signal ([1]; compound 0.001 M): 252
FMP assay signal (Fig5b) [2]: 121.393 and 152.286 and 131.821 and 116.107 and 106.464 and 116.643

From paper PMC9226124, “Macrocycle-stabilization of its interaction with 14-3-3 increases plasma membrane localization and activity of CFTR” (Nature Communications, 2022)
